Results published in patent publication US9983195B2, “Engineered three-dimensional breast tissue, adipose tissue, and tumor disease model” (ORGANOVO, INC., priority 2014, dated 2018).

Experiments:
Type in all cases: cell-based, human
[1] = tested on: bioprinted breast cancer constructs (MCF7/HUVEC cancer node surrounded by NHMF, HUVEC, SPA stroma); test: Construct viability after drug treatment by alamarBlue assay; conditions: 10 μM compound for 3 days, followed by 100 μM compound for 24 hours; FIG. 14
Excerpt: Bioprinted breast cancer constructs were generated in which a cancer cell node, composed of MCF7 breast cancer cells and human umbilical vein endothelial (HUVEC) cells, is surrounded on all sides by a stromal compartment composed of normal human mammary fibroblasts (NHMF), HUVEC cells, and subcutaneous preadipocytes (SPA). Bio-inks were produced by combining cells with a reversibly cross-linkable, alginate-containing hydrogel (Novogel® 3.0 System; Organovo, Calif.). The stromal compartment of the constructs was comprised of 65% NHMF, 25% HUVEC, and 10% SPA (partially pre-differentiated). The cancer compartment of the constructs was comprised of 75% MCF7, 25% HUVEC. For each compartment, cells were mixed together at the indicated ratio and resuspended in Novogel® 3.0 at a concentration of 150 million cells/ml. Constructs were printed as 3 layered structures with a dimension of 3 mm×3 mm×0.75 mm. Immediately following bioprinting, constructs were stabilized via crosslinking. After 2 minutes, the calcium crosslinking solution was aspirated and replaced with culture media. After 2 days in culture, constructs were treated overnight with enzyme dissolved in culture media to remove the Novogel® 3.0. […] Constructs were assessed for metabolic activity by alamarBlue assay (Life Technologies, Carlsbad, Calif.) or CellTiter Glo assay (Promega, Madison, Wis.). […]

[2] = tested on: bioprinted breast cancer tumor models (stromal and cancer compartments); test: Apoptosis by TUNEL staining with CK8 and TE7 markers in bioprinted breast cancer tumor models; conditions: 100 μM cisplatin for 4 days; FIG. 22
Excerpt: (§1) The breast cancer tumor models included a nodule of human breast cancer cells surrounded by a physiologically-relevant stromal layer, which included human adipocytes differentiated from human mesenchymal stem cells, human mammary fibroblasts, and human endothelial cells. The adipocytes were derived from mesenchymal stem cells which were isolated an exposed to an adipocyte differentiation signal prior to preparation of the bio-ink and bioprinting.
Referring to FIG. 22, bioprinted tissues were treated with vehicle (A-C) or 100 μM cisplatin (D-F) for 4 days. The first (A and D) and second (B and E) columns depict tissues assessed for apoptosis by TUNEL staining (green) and markers for cancer cells (CK8, red). The last (C and F) column depicts tissues assessed for apoptosis by TUNEL staining (green) and markers for fibroblasts (TE7, red).

[3] = tested on: breast cancer cells in two-dimensional culture and bioprinted breast cancer tumor models; test: Viability by ATP luciferase assay, two-dimensional breast cancer cell culture versus bioprinted breast cancer tumor models; conditions: 10 μM tamoxifen for 48 hours, FIG. 20
Excerpt: as §1
The breast cancer tumor models were exposed to chemotherapy compounds in order to access drug response. Referring to FIG. 20, breast cancer cells grown in two-dimensional cell culture (A) and the bioprinted breast cancer tumor models (B) were treated with media alone, DMSO, or 10 μM tamoxifen for 48 hours and assessed for viability by ATP luciferase assay. For each graph, * indicates p<0.05 for treatment compared to control.

Row | SMILES | construct viability (alamarBlue) relative to media or vehicle controls [1] | apoptosis (TUNEL) in stromal versus cancer compartment [2] | susceptibility to tamoxifen-induced toxicity, two-dimensional cells versus three-dimensional bioprinted constructs [3]
1 | N.N.[Cl][Pt][Cl] [Cisplatin, cisplatin] | decreased construct viability | induces greater apoptosis in the stromal compartment of bioprinted tissues than in the cancer compartment | 
2 | CC(=O)O[C@H]1C(=O)[C@@]2(C)[C@H]([C@H](OC(=O)c3ccccc3)[C@]3(O)C[C@H](OC(=O)[C@H](O)[C@@H](NC(=O)c4ccccc4)c4ccccc4)C(C)=C1C3(C)C)[C@]1(OC(C)=O)CO[C@@H]1C[C@@H]2O [paclitaxel] | decreased construct viability |  | 
3 | CC/C(=C(\c1ccccc1)c1ccc(OCCN(C)C)cc1)c1ccccc1 [tamoxifen] |  |  | Isolated two-dimensional cancer cells were more susceptible to tamoxifen-induced toxicity than cells incorporated into three-dimensional bioprinted constructs
